# Results published in PubChem BioAssay (NCI).
# Values joined by “and” are separate entries in the source; they are usually repeats but may differ in a detail not shown here. Equal entries are not always repeated.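 48-hour exposure; five concentrations; linearly interpolated endpoints. Abbreviation: GI50, concentration required for 50% inhibition of growth. TGI is the concentration that stops growth completely.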 Where a SMILES comes first, the peptide text is derived from it. [ ]: non-standard residue; d: D form. The star is where a group is joined. ξ: configuration not given here. X6 = FC(F)(F)c1cc(NC(=S)*)cc(C(F)(F)F)c1; ξF = NC(Cc1ccccc1)C(=O)O
# Experiments:
# Experiment in all cases: NCI tumour cell line growth inhibition, 48 h
# HCT-116 colon = tested on: HCT-116 colon
# OVCAR-8 ovarian = tested on: OVCAR-8 ovarian
# HOP-62 NSCLC = tested on: HOP-62 NSCLC
# COLO 205 colon = tested on: COLO 205 colon
# PC-3 prostate = tested on: PC-3 prostate
# MOLT-4 leukemia = tested on: MOLT-4 leukemia
# SF-268 CNS = tested on: SF-268 CNS
# HCC-2998 colon = tested on: HCC-2998 colon
# ACHN renal = tested on: ACHN renal
# SN12C renal = tested on: SN12C renal
Compound,GI50 (HCT-116 colon) [µM],TGI (HCT-116 colon),GI50 (OVCAR-8 ovarian) [µM],TGI (OVCAR-8 ovarian),GI50 (HOP-62 NSCLC) [µM],TGI (HOP-62 NSCLC),GI50 (COLO 205 colon) [µM],TGI (COLO 205 colon),GI50 (PC-3 prostate) [µM],TGI (PC-3 prostate) [µM],GI50 (MOLT-4 leukemia) [µM],TGI (MOLT-4 leukemia) [µM],GI50 (SF-268 CNS) [µM],TGI (SF-268 CNS) [µM],GI50 (HCC-2998 colon) [µM],TGI (HCC-2998 colon),GI50 (ACHN renal) [µM],TGI (ACHN renal) [µM],GI50 (SN12C renal) [µM],TGI (SN12C renal)
NC(=O)c1cccc2cn(-c3ccc([C@@H]4CCCNC4)cc3)nc12,10.8,25.1 µM,12.4,38.5 µM,8.44,27.8 µM,13.5,28.6 µM,16.1,> 100,6.99,30.1,9.13,28.5,14.1,34.3 µM,12.4,25.9,9.15,56.8 µM
COC(=O)[C@@H]1[C@H](O)[C@H](C)[C@H](O)[C@@](C)(O)/C=C\C=C(C)C(=O)Nc2c(C)c(OC(C)=O)c3c(c2O)C(=O)C(C)=C2OCOC(=C23)C(C)=C[C@@](C)(O)[C@H](O)[C@@H](C)[C@H]1OC(C)=O,59.7,> 100 µM and 66.9 µM,42.3,> 100 µM and 66.9 µM,–,> 100 µM and 66.9 µM,–,> 100 µM and 29 µM and 37.3 µM,–,> 66.9,–,> 100,> 66.9,> 100,11.1,> 100 µM and 66.9 µM,> 66.9,> 100,49.8,> 100 µM and 66.9 µM
COc1cc(Cc2cnc(/N=C3\C(=O)N(CN4CCN(c5c(F)cc6c(=O)c(C(=O)O)cn(C7CC7)c6c5OC)CC4C)c4ccc(F)cc43)nc2N)cc(OC)c1OC (stereo not given),7.78,20.6 µM,32.1,> 100 µM,14.4,27.4 µM,15,58.8 µM,13,25.7,1.16,6.97,18.2,57.7,12.6,26.1 µM,1.72,14.6,15.6,31.1 µM
COc1ccc2c(C3=C(c4cn(C)c5ccccc45)C(=O)NC3=O)cn(C)c2c1,0.112,> 25 µM,0.15,> 25 µM,0.122,> 25 µM,0.0917,0.323 µM,0.0936,> 25,0.24,> 24,0.292,> 25,0.41,> 25 µM,0.254,> 25,0.221,> 25 µM
COc1cc(/C=N/NC(=O)c2ccc(C(F)(F)F)nc2Nc2ccc(Cl)cc2C)ccc1O,2.95,12.7 µM,1.6,13.5 µM,3.78,19.7 µM,3.25,10.4 µM,1.89,9.87,0.554,2.75,1.78,13.3,1.98,8.45 µM,3.06,13.7,2.97,16.5 µM
COC1=CC(=O)c2nc(-c3ccncc3)[nH]c2C1=O,> 100,> 100 µM,> 100,> 100 µM,> 100,> 100 µM,> 100,> 100 µM,> 100,> 100,> 100,> 100,> 100,> 100,> 100,> 100 µM,> 100,> 100,> 100,> 100 µM
COC(=O)[C@@H](NC(=O)CNC(=O)[C@H]1CCCN1C(=O)C(Cc1ccccc1)NC(=S)Nc1cc(C(F)(F)F)cc(C(F)(F)F)c1)C(C)C (stereo not given in full) (X6-[ξF][dP]GV-OMe),3.34,10.7 µM,3.75,53.6 µM,1.92,3.62 µM,1.87,3.32 µM,2.48,–,2.28,6.07,2.98,10.7,3.39,11.9 µM,3.36,10.7,1.85,4.26 µM
